From the supplement of paper PMC4862054
Values joined by “and” are separate entries in the source; they are usually repeats but may differ in a detail not shown here. Identical values can stand only once.

Key:
Details in all cases: incubation time: 72 h
CAL-148 [1] = test: normalised viability (% of control), CellTiter-Blue; higher = more viable cells (about 100 = DMSO control)
Method: (§1)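 DSRT, CellTiter-Blue viability, 72 h incubation. Signal is normalised to DMSO and benzethonium chloride controls. Value is the normalised response at dose 9.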

CAL-51 [2] = test: as above
Method: as §1

CAL-85-1 [3] = test: as above
Method: as §1

DU-4475 [4] = test: as above
Method: as §1

HDQ-P1 [5] = test: as above
Method: as §1

MDA-MB-453 [6] = test: as above
Method: as §1

CAL-148 [7] = test: as above; remark: listed apart in the source
Method: (§2)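 DSRT, CellTiter-Blue viability, 72 h incubation. Signal is normalised to DMSO and benzethonium chloride controls. Value is the normalised response at dose 7.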

CAL-51 [8] = test: as above; remark: listed apart in the source
Method: as §2

CAL-85-1 [9] = test: as above; remark: listed apart in the source
Method: as §2

DU-4475 [10] = test: as above; remark: listed apart in the source
Method: as §2

HDQ-P1 [11] = test: as above; remark: listed apart in the source
Method: as §2

MDA-MB-453 [12] = test: as above; remark: listed apart in the source
Method: as §2

BT-474 = test: normalised response (% of control), CellTiter-Glo; higher = more viable cells (100 = DMSO, 0 = benzethonium chloride kill control)
In short: (§3)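 Plates were normalised with 0.1 % DMSO as 100 and a positive kill control as 0. Breast cancer cell lines in 20 µl suspension had been seeded into 384-well plates with compound at 5 concentrations in 10-fold steps over a compound-specific 10,000-fold range, incubated 72 h, and read for CellTox Green fluorescence (485/520 nm) followed by CellTiter-Glo luminescence. Each value is the normalised signal at a single concentration.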

CAL-120 = test: as above
In short: as §3

CAL-148 [13] = test: as above
In short: as §3

CAL-51 [14] = test: as above
In short: as §3

HCC1599 = test: as above
In short: as §3

HCC1937 = test: as above
In short: as §3

HDQ-P1 [15] = test: as above
In short: as §3

Hs578T = test: as above
In short: as §3

MCF-10A = test: as above
In short: as §3

MDA-MB-231 = test: as above
In short: as §3

MDA-MB-436 = test: as above
In short: as §3

Structure (SMILES) | normalised viability (CAL-148 [1]) | normalised viability (CAL-51 [2]) | normalised viability (CAL-85-1 [3]) | normalised viability (DU-4475 [4]) | normalised viability (HDQ-P1 [5]) | normalised viability (MDA-MB-453 [6]) | normalised viability (CAL-148 [7]) | normalised viability (CAL-51 [8]) | normalised viability (CAL-85-1 [9]) | normalised viability (DU-4475 [10]) | normalised viability (HDQ-P1 [11]) | normalised viability (MDA-MB-453 [12]) | normalised response (BT-474) | normalised response (CAL-120) | normalised response (CAL-148 [13]) | normalised response (CAL-51 [14]) | normalised response (HCC1599) | normalised response (HCC1937) | normalised response (HDQ-P1 [15]) | normalised response (Hs578T) | normalised response (MCF-10A) | normalised response (MDA-MB-231) | normalised response (MDA-MB-436)
O=NN(CCCl)C(=O)NCCCl [Carmustine] (10000 nM) | 109% | 98.2% | 95.6% | 105% | 114% | 115% |  |  |  |  |  |  |  |  |  |  |  |  |  |  |  |  | 
CC1=C2C[C@H]3[C@@H](CC=C4C[C@@H](O)CC[C@@]43C)[C@@H]2CC[C@]12O[C@@H]1C[C@H](C)CN[C@H]1[C@H]2C [Cyclopamine] (1000 nM) |  |  |  |  |  |  | 119% | 110% | 92.2% | 121% | 127% | 86.8% | 95.7% | 106% | 105% | 68% | 108% | 98.5% | 103% | 111% | 106% | 112% | 101%
CC1=C2C[C@H]3[C@@H](CC=C4C[C@@H](O)CC[C@@]43C)[C@@H]2CC[C@]12O[C@@H]1C[C@H](C)CN[C@H]1[C@H]2C [Cyclopamine] (10000 nM) | 116% | 102% | 94.8% | 107% | 148% | 119% |  |  |  |  |  |  |  |  |  |  |  |  |  |  |  |  | 
CC(=O)O[C@@]12CO[C@@H]1C[C@H](O)[C@@]1(C)C(=O)[C@H](O)C3=C(C)[C@@H](OC(=O)[C@H](O)[C@@H](NC(=O)OC(C)(C)C)c4ccccc4)C[C@@](O)([C@@H](OC(=O)c4ccccc4)[C@H]21)C3(C)C [Docetaxel] (100 nM) |  |  |  |  |  |  | 22.7% and 19.8% | 18.2% and 13.8% | 32.9% and 29.5% | 13.8% and 9.08% | 34.2% and 38% | 26.2% and 23.4% | 38.3% | 56.3% | 36.6% | 27.4% | 28.5% | 68.3% | 67.1% | 13% | 41.5% | 28.7% | 31.6%
CC(=O)O[C@@]12CO[C@@H]1C[C@H](O)[C@@]1(C)C(=O)[C@H](O)C3=C(C)[C@@H](OC(=O)[C@H](O)[C@@H](NC(=O)OC(C)(C)C)c4ccccc4)C[C@@](O)([C@@H](OC(=O)c4ccccc4)[C@H]21)C3(C)C [Docetaxel] (1000 nM) | 23.1% and 21.2% | 16.2% and 12.2% | 32.1% and 32.3% | 11.7% and 10.5% | 51.3% and 42.4% | 23.1% and 24.4% |  |  |  |  |  |  |  |  |  |  |  |  |  |  |  |  | 
CC1(C)CNc2cc(NC(=O)c3cccnc3NCc3ccncc3)ccc21 [Motesanib] (1000 nM) |  |  |  |  |  |  | 90.3% | 105% | 79.8% | 99.5% | 78.1% | 75.4% | 91.9% | 92.3% | 86.4% | 85.7% | 98.1% | 101% | 96.6% | 96.4% | 96.9% | 89.1% | 103%
CC1(C)CNc2cc(NC(=O)c3cccnc3NCc3ccncc3)ccc21 [Motesanib] (10000 nM) | 91.8% | 97.2% | 78.2% | 88.6% | 92.2% | 69.4% |  |  |  |  |  |  |  |  |  |  |  |  |  |  |  |  | 
CC[C@@H]1C(=O)OC[C@@H]1Cc1cncn1C [Pilocarpine] (4000 nM) |  |  |  |  |  |  | 101% | 108% | 89.5% | 95.5% | 121% | 101% | 92.2% | 95.7% | 91.6% | 96.8% | 92.7% | 92.6% | 92% | 105% | 93.8% | 97.4% | 91.5%
CC[C@@H]1C(=O)OC[C@@H]1Cc1cncn1C [Pilocarpine] (40000 nM) | 73.2% | 84.5% | 64.4% | 68.7% | 135% | 43.7% |  |  |  |  |  |  |  |  |  |  |  |  |  |  |  |  | 
CC(C)(C)c1cnc(CSc2cnc(NC(=O)C3CCNCC3)s2)o1 [SNS-032] (1000 nM) |  |  |  |  |  |  | 18.8% | 31.5% | 2.84% | 2.63% | 12.6% | 11.2% | 20.2% | 36.9% | 53.8% | 9.15% | 7.69% | 26.1% | 20.8% | 13% | 14.3% | 7.43% | 17.6%
Cn1cnc2c(F)c(Nc3ccc(Br)cc3Cl)c(C(=O)NOCCO)cc21 [Selumetinib] (1000 nM) |  |  |  |  |  |  | 92.8% | 91.3% | 64.8% | 1.82% | 75.2% | 104% | 67.8% | 85.1% | 79.4% | 110% | 93.9% | 84.7% | 63.8% | 93.4% | 37.6% | 72.5% | 90.7%
Nc1nc2[nH]cnc2c(=S)[nH]1 [Thioguanine] (1000 nM) |  |  |  |  |  |  | 93.4% | 108% | 79.2% | 117% | 85.2% | 95.2% | 44.8% | 79% | 93.4% | 91.9% | 82% | 59.9% | 66.1% | 78.3% | 99.8% | 50.7% | 83.8%
